Data published in patent publication US6569878B1, “Substituted 4-amino-thiazol-2-yl compounds as cyclin-dependent kinase inhibitors” (Agouron Pharmaceuticals Inc., priority 1997, dated 2003).

What was measured:
[1] = target: T1, complex of human CDK4 and cyclin D3 (Homo sapiens, UniProt P11802); assay: Inhibition of CDK4/cyclin D retinoblastoma kinase activity (D-type cyclin is D3); format: biochemical; details: superscript a: D-type cyclin is D3; apparent Ki; read-out: Ki CDK 4/D
T1 construct: made in house; host or cells: insect cells, co-infected with baculovirus
Summary of the method: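 Radiometric assay: [32P]- or [33P]ATP phosphate incorporation into Rb substrate at 30°C for 20 min, stopped with EDTA, filter-captured and phosphorimaged.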

[2] = target: T2, CDK2/cyclin A (Homo sapiens, UniProt P24941); assay: Inhibition of CDK2/cyclin A retinoblastoma kinase activity; format: biochemical; details: read-out: Ki CDK 2/A
T2 construct: made in house; host or cells: CDK2: insect cells (baculovirus); cyclin A: E. coli, then limited proteolysis
Experimental: Cyclin-dependent kinase activity was measured by quantifying the enzyme-catalyzed, time-dependent incorporation of radioactive phosphate from [^32P]ATP or [^33P]ATP into a protein substrate. Unless noted otherwise, assays were performed in 96-well plates in a total volume of 50 μL, in the presence of 10 mM HEPES (N-[2-hydroxyethyl]piperazine-N′-[2-ethanesulfonic acid]) (pH 7.4), 10 mM MgCl2, 25 μM adenosine triphosphate (ATP), 1 mg/mL ovalbumin, 5 μg/mL leupeptin, 1 mM dithiothreitol, 10 mM β-glycerophosphate, 0.1 mM sodium vanadate, 1 mM sodium fluoride, 2.5 mM ethylene glycol-bis(β-aminoethyl ether)-N,N,N′N′-tetraacetic acid (EGTA), 2% (v/v) dimethylsulfoxide, and 0.03-0.4 μCi [^32/33P]ATP per reaction. Reactions were initiated with enzyme, incubated at 30° C., and terminated after 20 minutes by the addition of ethylenediaminetetraacetic acid (EDTA) to 250 mM. The phosphorylated substrate was then captured on a nitrocellulose or phosphocellulose membrane using a 96-well filtration manifold, and unincorporated radioactivity was removed by repeated washing with 0.85% phosphoric acid. Radioactivity was quantified by exposing the dried membranes to a phosphorimager.
Apparent Ki values were measured by assaying enzyme activity in the presence of different inhibitor compound concentrations and subtracting the background radioactivity measured in the absence of enzyme. The kinetic parameters (kcat, Km for ATP) were measured for each enzyme under the usual assay conditions by determining the dependence of initial rates on ATP concentration. Inhibition data were fit to an equation for competitive inhibition using Kaleidagraph (Synergy Software), or were fit to an equation for competitive tight-binding inhibition using the software KineTic (BioKin, Ltd.).
CDK2 was purified using published methodology (Rosenblatt et al., “Purification and Crystallization of Human Cyclin-dependent Kinase 2,” J. Mol. Biol., vol. 230, 1993, pp. 1317-1319) from insect cells that had been infected with a baculovirus expression vector. […] Purified, proteolyzed cyclin A was included in the assay at a three- to five-fold molar excess to CDK2. Alternatively, a complex of CDK2 and proteolyzed cyclin A was prepared and purified by gel filtration. The substrate for this assay was the same Rb substrate fragment used for the CDK4 assays, and the methodology of the CDK2/cyclin A and the CDK4/cyclin D3 assays was essentially the same, except that CDK2 was present at 150 nM or 5 nM. Ki values were measured as described above.

[3] = tested on: HCT116; assay: Inhibition of cell growth, MTT assay, HCT116; format: cell-based, human; details: for IC50 / IC90: Homo sapiens, HCT-116; for % inhibition of growth in parentheses after >25: concentration not given
Experimental: (§1) The water-insoluble purple formazan product was then detected spectrophotometrically. […] Plates were incubated for four hours before addition of inhibitor compounds. Different concentrations of inhibitor compounds were added in 0.5% (v/v) dimethylsulfoxide (15 μL/well), and cells were incubated at 37° C. (5% CO2) for four to six days (depending on cell type). At the end of the incubation, MTT was added to a final concentration of 0.2 mg/mL, and cells were incubated for 4 hours more at 37° C. After centrifugation of the plates and removal of medium, the absorbance of the formazan (solubilized in dimethylsulfoxide) was measured at 540 nm.

[4] = tested on: U2-OS; assay: Inhibition of cell growth, MTT assay, U2-OS; format: cell-based; details: for IC50 / IC90: Homo sapiens, U2OS; for % inhibition of growth in parentheses after >25: concentration not given
Experimental: as §1

[5] = tested on: Saos-2; assay: Inhibition of cell growth, MTT assay, Saos-2; format: cell-based; details: Saos-2, MTT assay; for IC50 / IC90: Homo sapiens; for % inhibition of growth in parentheses after >25: concentration not given
Experimental: as §1

T1 sequence (P11802 whole entry): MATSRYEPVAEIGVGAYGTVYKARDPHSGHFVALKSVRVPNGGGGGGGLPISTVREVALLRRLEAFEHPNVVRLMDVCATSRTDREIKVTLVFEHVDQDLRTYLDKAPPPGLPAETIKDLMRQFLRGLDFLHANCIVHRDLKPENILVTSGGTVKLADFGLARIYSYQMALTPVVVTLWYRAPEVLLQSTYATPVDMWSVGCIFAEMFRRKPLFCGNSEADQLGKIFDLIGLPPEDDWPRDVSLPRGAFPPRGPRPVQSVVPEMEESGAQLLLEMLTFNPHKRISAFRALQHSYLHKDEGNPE
T1 sequence (P30281 whole entry partner): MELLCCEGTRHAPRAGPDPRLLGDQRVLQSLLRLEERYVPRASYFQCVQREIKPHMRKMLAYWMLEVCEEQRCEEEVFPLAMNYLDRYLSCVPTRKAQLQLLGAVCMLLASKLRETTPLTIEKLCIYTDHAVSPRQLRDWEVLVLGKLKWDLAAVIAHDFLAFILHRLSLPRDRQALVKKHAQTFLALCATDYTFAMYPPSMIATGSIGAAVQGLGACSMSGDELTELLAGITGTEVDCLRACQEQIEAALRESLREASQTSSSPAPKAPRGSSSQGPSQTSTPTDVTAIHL

| Structure (SMILES) | Ki [1] | Ki [2] | IC50 [3] | IC90 [3] | IC50 [4] | IC90 [4] | % inhibition of growth in parentheses after >25 [4] | IC50 [5] | IC90 [5] | % inhibition of growth in parentheses after >25 [3] | % inhibition of growth in parentheses after >25 [5] |
| --- | --- | --- | --- | --- | --- | --- | --- | --- | --- | --- | --- |
| Cc1ccc(C(=O)c2sc(Nc3cccnc3)nc2N)c(C)c1 [C(21), [4-Amino-2-(pyridin-3-ylamino)-thiazol-5-yl]-(2,4-dimethyl-phenyl)-methanone] | 0.117 µM | 0.48 µM | 9 µM | 22 µM | 22 µM | > 25 µM | 57% | 13 µM | 23 µM |  |  |
| COc1ccc(Nc2nc(N)c(C(=O)c3ccccc3I)s2)cc1 [C(12), [4-Amino-2-(4-methoxy-phenylamino)-thiazol-5-yl]-(2-iodo-phenyl)-methanone] | 0.027 µM | 0.67 µM | 2 µM | 5 µM | 1.9 µM | 6 µM |  | 2.1 µM | 4.8 µM |  |  |
| Cc1ccsc1C(=O)c1sc(Nc2ccc3nc[nH]c3c2)nc1N [C(19), [4-Amino-2-(1H-benzoimidazol-6-ylamino)-thiazol-5-yl]-(3-methyl-thiophen-2-yl)-methanone] | 0.0158 µM | 0.277 µM | 9 µM | 23 µM | 15 µM | > 25 µM | 77% | 7 µM | 18 µM |  |  |
| NC(=O)N1CCN(c2ccc(Nc3nc(N)c(C(=O)c4c(F)cccc4F)s3)cc2)CC1 [C(123), {4-Amino-2-[4-(4-carbamoyl-piperazin-1-yl)-phenylamino]-thiazol-5-yl}-(2,6-difluoro-phenyl)-methanone] | 0.0154 µM | 0.164 µM | 2.7 µM | 7 µM | 7.1 µM | 12 µM |  | 2.9 µM | 5.7 µM |  |  |
| Cc1ccc(C(=O)c2sc(Nc3ccc4nc[nH]c4c3)nc2N)c(C)c1 [C(20), [4-Amino-2-(1H-benzoimidazol-6-ylamino)-thiazol-5-yl]-(2,4-dimethyl-phenyl)-methanone] | 0.022 µM | 0.145 µM | 6.1 µM | 25 µM | 6.5 µM | > 25 µM | (74%) | 4.9 µM | 13 µM |  |  |
| CC(=O)N1CCN(c2ccc(Nc3nc(N)c(C(=O)c4c(Cl)cccc4Cl)s3)cc2)CC1 [C(97), 2-[4-(1-Acetyl-piperazin-4-yl)-phenylamino]-4-amino-thiazol-5-yl-(2,6-dichlorophenyl)-methanone] | 0.0085 µM | 0.392 µM | 3.9 µM | 11 µM | 10 µM | 21 µM |  | 9 µM | 20 µM |  |  |
| CCOC(=O)CC(C)Nc1nc(N)c(C(=O)c2sccc2C)s1 (racemic) [C(46), Ethyl 3RS-[4-Amino-5-(3-methyl-thiophene-2-carbonyl)-thiazol-2-ylamino]-butyrate] | 0.244 µM | 1.79 µM |  |  |  |  |  |  |  |  |  |
| Nc1nc(Nc2ccc3nc[nH]c3c2)sc1C(=O)c1cc(Cl)sc1Cl [C(93), [4-Amino-2-(1H-benzoimidazol-6-ylamino)-thiazol-5-yl]-(2,5-dichloro-thiophen-3-yl)-methanone] | 0.285 µM | 1.04 µM |  |  |  |  |  |  |  |  |  |

Continued, in another order:

| Ki [1] | Ki [2] | IC50 [3] | IC90 [3] | IC50 [4] | IC90 [4] | Structure (SMILES) | % inhibition of growth in parentheses after >25 [4] | IC50 [5] | IC90 [5] | % inhibition of growth in parentheses after >25 [3] | % inhibition of growth in parentheses after >25 [5] |
| --- | --- | --- | --- | --- | --- | --- | --- | --- | --- | --- | --- |
| 0.0173 µM | 0.238 µM | 3.8 µM | 8 µM | 8 µM | 19 µM | NC(=O)c1ccc(Nc2nc(N)c(C(=O)c3c(F)cccc3C(F)(F)F)s2)cc1 [C(113), 4-[4-Amino-5-(2-fluoro-6-trifluoromethyl-benzoyl)-thiazol-2-ylamino]-benzamide] |  | 2.8 µM | 9 µM |  |  |
| 0.011 µM | 0.105 µM | 8.5 µM | 17 µM | 15 µM | 23 µM | Nc1nc(Nc2ccc3nc[nH]c3c2)sc1C(=O)c1c(Cl)cccc1Cl [C(52), [4-Amino-2-(1H-benzoimidazol-6-ylamino)-thiazol-5-yl]-(2,6-dichloro-phenyl)-methanone] |  | 9 µM | 22 µM |  |  |
| 0.065 µM | 0.305 µM | 19 µM | > 25 µM | > 25 µM |  | Nc1nc(Nc2ccc(C(=O)C3COC(=O)[C@H]3N)cc2)sc1C(=O)c1c(Cl)cncc1Cl (stereo partly drawn) [C(88), trans-3RS-Amino-4RS-{4-[4-amino-5-(3,5-dichloropyridine-4-carbonyl)-thiazol-2-ylamino]-benzoyl}-dihydro-furan-2-one] | 26% | 22 µM | > 25 µM | 70% | (56%) |
| 0.03 µM | 0.026 µM | 4.2 µM | 7.8 µM | 10 µM | 20 µM | Cc1ncsc1C(=O)c1sc(Nc2ccc(S(N)(=O)=O)cc2)nc1N [C(47), 4-[4-Amino-5-(4-methyl-thiazole-5-carbonyl)-thiazol-2-ylamino]-benzenesulfonamide] |  | 2.5 µM | 5.1 µM |  |  |
| 0.0138 µM | 0.0125 µM | 2.5 µM | 7 µM | 7.9 µM | 12 µM | Nc1nc(Nc2ccc(S(N)(=O)=O)cc2)sc1C(=O)c1c(Cl)cc(Cl)cc1Cl [C(107), 4-[4-Amino-5-(2,4,6-trichloro-benzoyl)-thiazol-2-yl-amino]-benzenesulfonamide] |  | 5.7 µM | 12 µM |  |  |
| 0.0442 µM | 0.467 µM | > 25 µM |  | > 25 µM |  | CC(=O)Nc1ccc(Cl)c(C(=O)c2sc(Nc3ccc4nc[nH]c4c3)nc2N)c1Cl [C(82), N-{3-[4-Amino-2-(1H-benzoimidazol-6-ylamino)-thiazole-5-carbonyl]-2,4-dichloro-phenyl}-acetamide] | 1% | > 25 µM |  | 1% | 15% |
| 0.0068 µM | 0.081 µM | 4.7 µM | 18 µM | 19 µM | > 25 µM | Nc1nc(Nc2ccc3nc[nH]c3c2)sc1C(=O)c1c(Cl)cc(Br)c(N)c1Cl [C(91), [4-Amino-2-(1H-benzoimidazol-6-ylamino)-thiazol-5-yl]-(3-amino-4-bromo-2,6-dichloro-phenyl)-methanone] |  | 5.9 µM | 23 µM |  |  |
| 0.025 µM | 0.039 µM | 4.3 µM | 19 µM | 11 µM | > 25 µM | Nc1nc(Nc2ccc(S(N)(=O)=O)cc2)sc1C(=O)c1c(Cl)cc(C(F)(F)F)cc1Cl [C(38), 4-[4-Amino-5-(2,6-dichloro-4-trifluoromethyl-benzoyl)-thiazol-2-ylamino]-benzenesulfonamide] | 87% | 3 µM | > 25 µM |  | 80% |
| 0.02 µM | 0.638 µM | 5 µM | 15 µM | 14 µM | ≥ 26 µM | Nc1nc(Nc2ccc(N3CCOCC3)cc2)sc1C(=O)c1c(Cl)cncc1Cl [C(69), {4-Amino-2-[4-morpholin-4-yl-phenylamino]-thiazol-5-yl}-(3,5-dichloro-pyridin-4-yl)-methanone] |  | 12 µM | ≥ 26 µM |  |  |
| 0.085 µM | 0.18 µM |  |  |  |  | Nc1nc(Nc2ccc(-c3ncc[nH]3)cc2)sc1C(=O)c1c(Cl)cc(C(F)(F)F)cc1Cl [C(53), {4-Amino-2-[4-(1H-imidazol-2-yl)-phenylamino]-thiazol-5-yl}-(2,6-dichloro-4-trifluoromethyl-phenyl)-methanone] |  |  |  |  |  |
